One data set deals with Trypsin (Homo sapiens, UniProt P07477+P07478+P35030). Description: Inhibition of trypsin (unknown origin) at 50 uM using Boc-Val-Pro-Arg-AMC as substrate preincubated for 15 mins followed by substrate addition and measured for 15 mins by fluorimetric assay relative to control. The data set is classed as protein assay. Particulars: 0.25 h, 50 µM.
A further data set has as its target Prothrombin (Homo sapiens, UniProt P00734). Description: Inhibition of thrombin (unknown origin) at 25 uM using Boc-Val-Pro-Arg-AMC as substrate preincubated for 15 mins followed by substrate addition and measured for 15 mins by fluorimetric assay. Particulars: 0.25 h.
Data set [1] can be described thus: Cytotoxicity against human HeLa cells assessed as reduction in cell viability measured after 24 hrs by celltiter-blue assay. Format: cell-based. For orientation: Alamar Blue is a resazurin reagent that responds to reducing activity.
Data set [2] addresses T1, Genome polyprotein (dengue virus type 2, UniProt P29990). Put plainly: Inhibition of Dengue virus serotype 2 NS2B-NS3 protease transfected in human HeLa cells measured after 24 hrs by Renilla-luciferase reporter gene assay. The data set is classed as cell-based.
For data set [3], the target named is Genome polyprotein (West Nile virus, UniProt P06935). Put plainly: Inhibition of West Nile virus NS2B-NS3 protease expressed in Escherichia coli BL21 lambda (DE3) cells using Abz-Gly-Leu-Lys-Arg-Gly-Gly-3-(NO2)Tyr as substrate preincubated for 15 mins followed by substrate addition measured for 15 mins by fluorimetric analysis.
Chain of Genome polyprotein (West Nile virus, UniProt P06935) (P06935 1371-1501 limits assumed): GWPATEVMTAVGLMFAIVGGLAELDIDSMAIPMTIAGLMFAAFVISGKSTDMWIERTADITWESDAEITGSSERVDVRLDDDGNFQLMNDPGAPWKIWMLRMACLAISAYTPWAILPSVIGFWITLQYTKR
Chain of Genome polyprotein (West Nile virus, UniProt P06935) (P06935 1502-2120 limits assumed): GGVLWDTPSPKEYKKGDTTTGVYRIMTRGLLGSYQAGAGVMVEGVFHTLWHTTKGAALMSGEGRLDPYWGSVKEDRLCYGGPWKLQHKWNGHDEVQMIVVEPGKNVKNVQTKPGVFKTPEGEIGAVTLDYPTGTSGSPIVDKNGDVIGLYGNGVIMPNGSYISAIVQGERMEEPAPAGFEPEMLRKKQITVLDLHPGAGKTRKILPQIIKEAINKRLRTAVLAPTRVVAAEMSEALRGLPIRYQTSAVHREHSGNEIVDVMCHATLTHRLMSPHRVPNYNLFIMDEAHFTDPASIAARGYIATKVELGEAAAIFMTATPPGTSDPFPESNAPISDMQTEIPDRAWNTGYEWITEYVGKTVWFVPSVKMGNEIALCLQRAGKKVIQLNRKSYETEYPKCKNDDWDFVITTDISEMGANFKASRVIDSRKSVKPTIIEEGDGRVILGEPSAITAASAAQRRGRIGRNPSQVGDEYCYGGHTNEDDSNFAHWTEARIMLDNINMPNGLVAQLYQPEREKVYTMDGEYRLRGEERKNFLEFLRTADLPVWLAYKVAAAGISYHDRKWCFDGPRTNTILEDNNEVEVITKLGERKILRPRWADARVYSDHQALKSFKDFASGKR
Another data set has as its system dengue virus type 2. Description: Antiviral activity against DENV2 infected in human HuH7 cells assessed as reduction in virus titer at 12.5 uM measured after 48 hrs relative to control. The data set is classed as functional. The conditions noted are these: Huh-7, 48 h.
Data set [4] has as its target T1, Genome polyprotein. Put plainly: Inhibition of Dengue virus serotype 2 NS2B-NS3 protease expressed in Escherichia coli BL21 lambda (DE3) cells using Abz-Nle-Lys-Arg-Arg-Ser-3-(NO2)Tyr as substrate preincubated for 15 mins followed by substrate addition and measured for 15 mins by FRET assay.
The next data set has as its system Huh-7. Description: Cytotoxicity against human HuH7 cells assessed as reduction in cell viability at 12 uM measured after 48 hrs by celltiter-blue assay. The conditions noted are these: huh-7, 48 h. Format: cell-based.
In data set [5] the target is Genome polyprotein (dengue virus type 2) (UniProt P29990). Description: Inhibition of Dengue virus serotype 2 NS2B-NS3 protease expressed in Escherichia coli BL21 lambda (DE3) cells at 50 uM using Abz-Nle-Lys-Arg-Arg-Ser-3-(NO2)Tyr as substrate preincubated for 15 mins followed by substrate addition and measured for 15 mins by FRET assay relative to control.
Data set [6] concerns the target Genome polyprotein (West Nile virus) (UniProt P06935). Description: Inhibition of West Nile virus NS2B-NS3 protease expressed in Escherichia coli BL21 lambda (DE3) cells at 50 uM using Abz-Gly-Leu-Lys-Arg-Gly-Gly-3-(NO2)Tyr as substrate preincubated for 15 mins followed by substrate addition measured for 15 mins by fluorimetric analysis relative to control.
Data set [7] concerns the target Genome polyprotein (dengue virus type 2) (UniProt P29990). Put plainly: Inhibition of Dengue virus serotype 2 NS2B-NS3 protease transfected in human HeLa cells at 12.5 uM measured after 24 hrs by Renilla-luciferase reporter gene assay relative to control. The data set is classed as cell-based.
The nature of data set [8]: Permeability of the compound assessed as drug level in donor plate at 200 uM measured after 5 hrs at pH 7.4 by PAMPA. The data set is classed as ADME. Particulars: pH 7.4, 5 h, BLD = below limit of detection. In general terms: The PAMPA barrier holds no transporters, so it reflects passive diffusion.

A value given as a limit tells only on which side of the number the result lay.

Chain of Genome polyprotein (West Nile virus) (P06935 whole entry): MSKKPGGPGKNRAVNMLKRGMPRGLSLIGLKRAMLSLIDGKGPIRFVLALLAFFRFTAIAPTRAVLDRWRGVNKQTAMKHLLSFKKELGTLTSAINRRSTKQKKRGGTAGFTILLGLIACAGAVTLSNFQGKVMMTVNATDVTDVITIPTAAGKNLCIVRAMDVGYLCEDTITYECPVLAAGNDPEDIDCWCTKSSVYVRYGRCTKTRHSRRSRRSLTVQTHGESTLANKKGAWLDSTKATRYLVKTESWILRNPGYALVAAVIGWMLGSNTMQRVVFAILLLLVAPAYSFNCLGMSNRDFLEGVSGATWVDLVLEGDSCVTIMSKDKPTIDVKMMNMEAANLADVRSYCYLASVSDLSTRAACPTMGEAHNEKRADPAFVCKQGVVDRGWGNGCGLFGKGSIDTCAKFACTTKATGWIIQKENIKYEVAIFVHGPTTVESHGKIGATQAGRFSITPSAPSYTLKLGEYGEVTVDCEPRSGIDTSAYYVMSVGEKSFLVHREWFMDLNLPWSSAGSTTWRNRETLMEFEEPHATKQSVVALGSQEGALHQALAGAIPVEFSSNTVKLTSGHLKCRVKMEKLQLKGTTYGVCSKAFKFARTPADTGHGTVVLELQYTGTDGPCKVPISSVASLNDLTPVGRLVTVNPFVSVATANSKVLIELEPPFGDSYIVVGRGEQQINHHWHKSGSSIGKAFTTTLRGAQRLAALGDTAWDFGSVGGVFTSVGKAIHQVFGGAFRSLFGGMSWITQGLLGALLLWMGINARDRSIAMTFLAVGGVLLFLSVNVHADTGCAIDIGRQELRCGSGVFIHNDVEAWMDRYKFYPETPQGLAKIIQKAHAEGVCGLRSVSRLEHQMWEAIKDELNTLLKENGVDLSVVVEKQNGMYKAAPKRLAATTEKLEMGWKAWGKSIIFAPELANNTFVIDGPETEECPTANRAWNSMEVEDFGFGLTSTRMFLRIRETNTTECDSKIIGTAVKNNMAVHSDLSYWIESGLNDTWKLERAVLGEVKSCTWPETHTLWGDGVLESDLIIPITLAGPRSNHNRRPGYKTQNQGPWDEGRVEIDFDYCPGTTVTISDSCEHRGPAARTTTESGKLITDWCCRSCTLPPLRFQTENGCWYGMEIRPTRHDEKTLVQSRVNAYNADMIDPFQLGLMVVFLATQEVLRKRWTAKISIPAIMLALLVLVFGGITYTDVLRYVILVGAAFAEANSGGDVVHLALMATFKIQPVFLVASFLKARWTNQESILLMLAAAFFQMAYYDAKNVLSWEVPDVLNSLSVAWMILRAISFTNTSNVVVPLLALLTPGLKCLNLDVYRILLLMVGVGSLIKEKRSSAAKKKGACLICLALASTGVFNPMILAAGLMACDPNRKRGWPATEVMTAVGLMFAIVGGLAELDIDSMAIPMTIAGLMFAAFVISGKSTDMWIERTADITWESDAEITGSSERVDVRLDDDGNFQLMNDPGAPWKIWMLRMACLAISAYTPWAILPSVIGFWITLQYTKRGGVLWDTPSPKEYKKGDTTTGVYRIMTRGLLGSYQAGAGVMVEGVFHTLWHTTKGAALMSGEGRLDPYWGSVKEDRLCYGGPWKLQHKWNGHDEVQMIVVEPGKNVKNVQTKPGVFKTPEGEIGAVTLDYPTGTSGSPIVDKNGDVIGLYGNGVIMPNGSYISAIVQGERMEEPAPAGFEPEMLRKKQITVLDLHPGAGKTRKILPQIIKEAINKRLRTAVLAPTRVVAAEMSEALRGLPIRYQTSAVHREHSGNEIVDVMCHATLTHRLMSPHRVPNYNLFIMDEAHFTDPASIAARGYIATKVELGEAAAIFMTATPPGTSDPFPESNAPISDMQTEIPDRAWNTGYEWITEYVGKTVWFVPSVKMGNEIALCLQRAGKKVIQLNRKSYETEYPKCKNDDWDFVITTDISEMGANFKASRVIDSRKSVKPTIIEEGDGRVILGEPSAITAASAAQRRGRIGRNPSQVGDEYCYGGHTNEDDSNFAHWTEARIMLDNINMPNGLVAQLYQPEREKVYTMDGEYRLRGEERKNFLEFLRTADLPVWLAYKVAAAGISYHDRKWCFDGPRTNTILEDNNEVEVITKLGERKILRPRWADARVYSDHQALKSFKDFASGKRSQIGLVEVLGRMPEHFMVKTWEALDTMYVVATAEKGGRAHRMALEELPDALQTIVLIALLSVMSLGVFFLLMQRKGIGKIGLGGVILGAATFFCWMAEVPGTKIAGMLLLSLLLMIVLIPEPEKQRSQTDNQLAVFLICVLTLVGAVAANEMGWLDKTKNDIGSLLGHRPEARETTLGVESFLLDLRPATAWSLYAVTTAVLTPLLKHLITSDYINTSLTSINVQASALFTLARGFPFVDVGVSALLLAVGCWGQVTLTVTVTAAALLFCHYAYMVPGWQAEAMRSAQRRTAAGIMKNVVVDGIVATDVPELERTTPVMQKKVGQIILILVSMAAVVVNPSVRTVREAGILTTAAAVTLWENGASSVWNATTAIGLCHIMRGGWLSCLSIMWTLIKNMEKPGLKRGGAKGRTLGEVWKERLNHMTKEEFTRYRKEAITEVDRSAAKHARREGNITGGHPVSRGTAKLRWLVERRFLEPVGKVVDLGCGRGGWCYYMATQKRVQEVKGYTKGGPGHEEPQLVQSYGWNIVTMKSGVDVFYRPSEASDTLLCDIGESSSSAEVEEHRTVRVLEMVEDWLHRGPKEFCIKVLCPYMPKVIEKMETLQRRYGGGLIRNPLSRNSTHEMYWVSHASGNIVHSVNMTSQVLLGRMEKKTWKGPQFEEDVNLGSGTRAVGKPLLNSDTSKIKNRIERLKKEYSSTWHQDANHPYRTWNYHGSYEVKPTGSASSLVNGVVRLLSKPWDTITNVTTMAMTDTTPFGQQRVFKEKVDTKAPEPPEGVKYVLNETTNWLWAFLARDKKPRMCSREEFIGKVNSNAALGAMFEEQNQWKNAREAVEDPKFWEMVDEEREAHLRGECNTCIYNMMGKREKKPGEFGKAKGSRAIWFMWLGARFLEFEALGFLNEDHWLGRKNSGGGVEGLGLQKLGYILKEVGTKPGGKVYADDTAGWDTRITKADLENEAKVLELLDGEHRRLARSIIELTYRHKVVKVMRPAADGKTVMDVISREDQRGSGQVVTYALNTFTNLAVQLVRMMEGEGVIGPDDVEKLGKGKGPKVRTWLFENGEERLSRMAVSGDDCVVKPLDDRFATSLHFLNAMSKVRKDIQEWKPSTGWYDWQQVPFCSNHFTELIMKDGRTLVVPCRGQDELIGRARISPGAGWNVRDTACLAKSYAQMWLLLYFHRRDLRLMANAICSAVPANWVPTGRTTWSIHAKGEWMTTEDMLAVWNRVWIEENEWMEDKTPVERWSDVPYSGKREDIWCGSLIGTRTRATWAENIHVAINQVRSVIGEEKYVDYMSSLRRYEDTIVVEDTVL

Turning to `CCCCCC(=O)N[C@H](C(=O)NCc1ccc(NC(=N)N)nc1)c1ccc(OCc2ccccc2)cc1.O=C(O)C(F)(F)F`, the “inhibition (INH)” value against Trypsin and at Prothrombin was “Not Active” throughout. The CC50 – broadly, the concentration at which the toxic effect on the cells reaches its halfway point – at 24 h in [1] is above 50 µM. A half-maximal response at Genome polyprotein [2] (EC50) required 5.9 µM. Also, the half-inhibitory concentration (IC50) (as a rule, the concentration needed to halve the response being measured) on Genome polyprotein [3] came out at 23 µM; on Genome polyprotein [4] it was 19 µM. The inhibition (as a rule, the relative decrease from the control value, in per cent) at 12.5 µM in the data set on dengue virus type 2 worked out at 31.5%. Further, in the data set on Huh-7, the Activity result is on record as “Non-Toxic”. Moreover, the inhibition in [5] was found to be 93.9%; in data set [6], 96.8%; in data set [7] it was 67.7%.

`CCCCCC(=O)N[C@H](C(=O)NCc1cccc(CN)c1)c1ccc(OCc2ccccc2)cc1`: the “inhibition (INH)” value against Trypsin and against Prothrombin was “Not Active” in each case. In addition, the half-maximal cytotoxic concentration (CC50) at 24 h in [1] was above 12.5 µM. Also, the EC50 (as a rule, the concentration that produces a half-maximal response) on Genome polyprotein [2] came out at 4.2 µM. Further, the values for the half-maximal inhibitory concentration (IC50) on Genome polyprotein [3] and on Genome polyprotein [4] were 27 µM and 30 µM, respectively. Further, the results for the inhibition in [5], in data set [6] and in data set [7] were 97.2%, 85.4% and 71%, respectively.

With `CCCCCC(=O)N[C@H](C(=O)NCCCCCCN)c1ccc(OCc2ccccc2)cc1`, the “inhibition (INH)” value against Trypsin and on Prothrombin was “Not Active” each time. For the same compound, the cytotoxic concentration (CC50) at 24 h in data set [1] is above 50 µM. For the same compound, the EC50 at Genome polyprotein [2] came to 13 µM. Also, the inhibition is 18.1% in data set [5], below 10% in [6] and 45.8% in data set [7].

Take `CCCCC(=O)N[C@H](C(=O)NCc1ccc(NC(=N)N)cc1)c1ccc(OCc2ccccc2)cc1.O=C(O)C(F)(F)F`: the “inhibition (INH)” value on Trypsin and at Prothrombin was “Not Active” each time. The half-maximal cytotoxic concentration (CC50) at 24 h in data set [1] is above 50 µM. On Genome polyprotein [2], this compound yielded a half-maximal effective concentration (EC50) of 2.8 µM. In addition, the inhibition was determined as 22% in [5], 11.2% in data set [6] and 69.4% in [7].

As to `CCCCCC(=O)N[C@H](C(=O)NCc1ccc(CN(C)C)cc1)c1ccc(OCc2ccccc2)cc1`, the “inhibition (INH)” value against Trypsin and against Prothrombin was “Not Active” each time. The 50% cytotoxic concentration (CC50) at 24 h in data set [1] is above 12.5 µM. Also, the 50% effective concentration (EC50) at Genome polyprotein [2] came out at 6.7 µM. Further, the inhibition was below 10% in [5], below 10% in data set [6] and 65.7% in [7].

As to `N=C(N)Nc1ccc(CNC(=O)[C@@H](NC(=O)CC2CCCCC2)c2ccc(OCc3ccccc3)cc2)cc1.O=C(O)C(F)(F)F`, the “inhibition (INH)” value against Trypsin and against Prothrombin was “Not Active” each time. Moreover, the CC50 at 24 h in [1] is above 50 µM. Also, the half-inhibitory concentration (IC50) at Genome polyprotein [3] was determined as 28 µM; against Genome polyprotein [4], 9 µM. Besides, the inhibition in data set [5] is 100%; in data set [6], 99.5%; in [7], 41.7%.

Take `N=C(N)Nc1ccc(CNC(=O)[C@@H](NC(=O)c2ccc(OCc3ccc(Cl)cc3)cc2)c2ccc(OCc3ccccc3)cc2)cc1.O=C(O)C(F)(F)F`: the “inhibition (INH)” value on Trypsin and against Prothrombin was “Not Active” in each case. Also, in [1], the CC50 at 24 h was above 12.5 µM. For the same compound, the concentration for half-maximal inhibition (IC50) at Genome polyprotein [3] is 2.5 µM; against Genome polyprotein [4] it was 2.2 µM. In addition, the figures for the inhibition in [5], in data set [6] and in [7] were 98.7%, 103% and 44.6%, respectively.

Consider `N=C(N)NCc1ccc(CNC(=O)[C@H](NC(=O)c2ccc(Oc3ccccc3)cc2)c2ccc(OCc3ccc(Cl)c(Cl)c3)cc2)cc1.O=C(O)C(F)(F)F`, for which the “inhibition (INH)” value at Trypsin and on Prothrombin was “Not Active” throughout. In addition, the half-maximal cytotoxic concentration (CC50) at 24 h in [1] was above 50 µM. Also, the Drug uptake entry in data set [8] is recorded as “Bld”. The IC50 on Genome polyprotein [3] was 5.5 µM; against Genome polyprotein [4], 2.5 µM. The inhibition in [5] stood at 99.8%; in data set [6] it was 99.6%; in [7], 36%.

As to `CCCCCC(=O)N[C@H](C(=O)NCc1ccc(NC(=N)N)cc1)c1ccc(OCc2c(Cl)cccc2Cl)cc1.O=C(O)C(F)(F)F`, the “inhibition (INH)” value at Trypsin and on Prothrombin was “Not Active” each time. Also, the CC50 at 24 h in [1] is above 50 µM. For the same compound, in data set [8], the Drug uptake entry is listed as “Bld”. The IC50 against Genome polyprotein [3] turned out to be 6.2 µM; against Genome polyprotein [4], 2.9 µM. For the same compound, the inhibition in [5] came to 97.5%; in [6], 101%; in [7] it was 41.5%.

For `N=C(N)Nc1ccc(CNC(=O)[C@@H](NC(=O)c2ccccc2-c2ccccc2)c2ccc(OCc3ccccc3)cc2)cc1.O=C(O)C(F)(F)F`, the “inhibition (INH)” value against Trypsin and on Prothrombin was “Not Active” in each case. Also, the 50% cytotoxic concentration (CC50) at 24 h in [1] is above 50 µM. Moreover, the IC50 against Genome polyprotein [3] is 35 µM; at Genome polyprotein [4], 24 µM. The inhibition in data set [5] is 93.3%; in [6], 88.1%; in data set [7], 30.1%.

`CCCCCC(=O)N[C@@H](C(=O)NCc1ccc(NC(=N)N)cc1)c1ccc(OCc2ccc(C(F)(F)F)cc2)cc1.O=C(O)C(F)(F)F`: the “inhibition (INH)” value against Trypsin and at Prothrombin was “Not Active” each time. Also, the 50% cytotoxic concentration (CC50) at 24 h in data set [1] is above 50 µM. Moreover, the IC50 on Genome polyprotein [3] was determined as 14 µM; on Genome polyprotein [4], 6.6 µM. Further, the inhibition in [5] was 96.7%; in data set [6] it was 102%; in data set [7], 44.6%.

With `CCCCCCCCCC(=O)N[C@H](C(=O)NCc1ccc(NC(=N)N)cc1)c1ccc(OCc2ccccc2)cc1.O=C(O)C(F)(F)F`, the “inhibition (INH)” value on Trypsin and against Prothrombin was “Not Active” throughout. The CC50 at 24 h in data set [1] is above 50 µM. At Genome polyprotein [2], this compound had a concentration giving a half-maximal response (EC50) of 2.3 µM. The Drug uptake result in data set [8] is reported as “Bld”. The half-inhibitory concentration (IC50) against Genome polyprotein [3] worked out at 5 µM; against Genome polyprotein [4] it was 2.3 µM. Also, the figures for the inhibition in data set [5], in data set [6] and in data set [7] were 99.8%, 102% and 65.8%, respectively.

Take `CCCCCC(=O)N[C@H](C(=O)Nc1ccc2[nH]ncc2c1)c1ccc(OCc2ccccc2)cc1`: the “inhibition (INH)” value at Trypsin and against Prothrombin was “Not Active” throughout. In addition, in data set [1], the half-maximal cytotoxic concentration (CC50) at 24 h is above 50 µM. The same compound showed an EC50 on Genome polyprotein [2] of 6.9 µM. The inhibition worked out at 22.4% in data set [5], 26% in data set [6] and 65.4% in [7].

In the case of `CCCCCC(=O)N[C@H](C(=O)NCc1ccc(N)nc1)c1ccc(OCc2ccccc2)cc1.O=C(O)C(F)(F)F`, the “inhibition (INH)” value on Trypsin and against Prothrombin was “Not Active” in each case. Moreover, in data set [1], the CC50 at 24 h was above 50 µM. For the same compound, the response on Genome polyprotein [2] was half-maximal at 13 µM (EC50). In addition, the inhibition in data set [5] is 22.6%; in data set [6], 37.8%; in [7] it was 57%.

As for `N=C(N)Nc1ccc(CNC(=O)[C@@H](NC(=O)Cc2ccc(-c3ccccc3)cc2)c2ccc(OCc3ccccc3)cc2)cc1.O=C(O)C(F)(F)F`, the “inhibition (INH)” value against Trypsin and against Prothrombin was “Not Active” throughout. In addition, the cytotoxic concentration (CC50) at 24 h in data set [1] was above 50 µM. Moreover, at Genome polyprotein [2], the 50% effective concentration (EC50) worked out at 20 µM. The Drug uptake result in [8] was “Bld”. Moreover, the results for the IC50 at Genome polyprotein [3] and against Genome polyprotein [4] were 1.8 µM and 1.3 µM, respectively. The inhibition in [5] was 101%; in data set [6], 99.3%; in [7], 16.3%.

On to `CCCCCC(=O)N[C@H](C(=O)NCCCCCCNC(=N)N)c1ccc(OCc2ccccc2)cc1`, for which the “inhibition (INH)” value against Trypsin and on Prothrombin was “Not Active” each time. Besides, the CC50 at 24 h in data set [1] is above 50 µM. The compound further came in with a 50% effective concentration (EC50) on Genome polyprotein [2] of 7.7 µM. The inhibition in data set [5] was below 10%; in data set [6], 28.3%; in data set [7], 61%.

As to `CCCCCC(=O)N[C@@H](C(=O)NCc1ccc(NC(=N)N)cc1)c1ccc(OCc2ccc(Cl)c(Cl)c2)cc1.O=C(O)C(F)(F)F`, the “inhibition (INH)” value at Trypsin and against Prothrombin was “Not Active” throughout. Also, the CC50 at 24 h in data set [1] is above 50 µM. In addition, at Genome polyprotein [2], the concentration for a half-maximal effect (EC50) came to 16 µM. Moreover, the concentration for half-maximal inhibition (IC50) against Genome polyprotein [3] was 8.3 µM; against Genome polyprotein [4] it was 5.7 µM. For the same compound, the inhibition amounted to 97.3% in data set [5], 101% in data set [6] and 51% in [7].

The values above are taken from ChEMBL document CHEMBL4619777, “A New Class of Dengue and West Nile Virus Protease Inhibitors with Submicromolar Activity in Reporter Gene DENV-2 Protease and Viral Replication Assays” (J Med Chem, 2020).
